Experimental data as given in US20250074910A1, “MENIN INHIBITOR AND USE THEREOF” (HITGEN INC., priority 2021, published 2025).

How the values were obtained:
[1] = molecular target: Menin/MLL-4-43 peptide interaction (Homo sapiens (Human), UniProt O00255); assay: Menin-MLL interaction inhibitory activity assay (fluorescence polarization competition); type: binding; settings: FITC-MLL4-43-peptide, Menin recombinant protein
Method in brief: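 Menin (8 nM solution) was preincubated 15 min with compound, then FITC-MLL4-43 peptide (10 nM solution) was added and shaken for 60 min at 25 °C. The buffer was 50 mM Tris pH 7.5, 50 mM NaCl, 1 mM DTT. IC50 was derived from fluorescence polarization read at 485/520 nm.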

[2] = Stability in human liver microsomes; type: in vitro ADME; settings: human, liver microsomes, pH 7.4, Human; 0.5 mg/mL microsomal protein, 1.00 μM compound, NADPH; read-out: Half life T1/2, human liver microsomes
Method in brief: (§1)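 Compound at 1.00 μM incubated at 37° C with 0.5 mg/mL liver microsomal protein and 2.00 mM NADPH in 100 mM phosphate buffer pH 7.4, sampled 0–60 min with acetonitrile quench. Parent remaining by LC-MS/MS; T½ from ln-remaining slope, CLint scaled by microsomal concentration and conversion factor.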

[3] = Stability in mouse liver microsomes; type: in vitro ADME; settings: liver microsomes, pH 7.4, 0.5 mg/mL microsomal protein, 1.00 μM compound, NADPH, read-out: Half life T1/2, mouse liver microsomes
Method in brief: as §1

[4] = molecular target: hERG potassium ion channel (Homo sapiens (Human), UniProt Q12809); assay: hERG potassium channel effect test (manual patch clamp, HEK293 cells overexpressing hERG); type: cell-based; settings: for inhibition at 30 μM: human, HEK293 cells overexpressing hERG potassium ion channels, read-out: Average inhibition rate of hERG current at the highest compound tested concentration; for IC50: manual patch clamp, highest test concentration 30 μM
Chain of hERG potassium ion channel (Q12809 whole entry): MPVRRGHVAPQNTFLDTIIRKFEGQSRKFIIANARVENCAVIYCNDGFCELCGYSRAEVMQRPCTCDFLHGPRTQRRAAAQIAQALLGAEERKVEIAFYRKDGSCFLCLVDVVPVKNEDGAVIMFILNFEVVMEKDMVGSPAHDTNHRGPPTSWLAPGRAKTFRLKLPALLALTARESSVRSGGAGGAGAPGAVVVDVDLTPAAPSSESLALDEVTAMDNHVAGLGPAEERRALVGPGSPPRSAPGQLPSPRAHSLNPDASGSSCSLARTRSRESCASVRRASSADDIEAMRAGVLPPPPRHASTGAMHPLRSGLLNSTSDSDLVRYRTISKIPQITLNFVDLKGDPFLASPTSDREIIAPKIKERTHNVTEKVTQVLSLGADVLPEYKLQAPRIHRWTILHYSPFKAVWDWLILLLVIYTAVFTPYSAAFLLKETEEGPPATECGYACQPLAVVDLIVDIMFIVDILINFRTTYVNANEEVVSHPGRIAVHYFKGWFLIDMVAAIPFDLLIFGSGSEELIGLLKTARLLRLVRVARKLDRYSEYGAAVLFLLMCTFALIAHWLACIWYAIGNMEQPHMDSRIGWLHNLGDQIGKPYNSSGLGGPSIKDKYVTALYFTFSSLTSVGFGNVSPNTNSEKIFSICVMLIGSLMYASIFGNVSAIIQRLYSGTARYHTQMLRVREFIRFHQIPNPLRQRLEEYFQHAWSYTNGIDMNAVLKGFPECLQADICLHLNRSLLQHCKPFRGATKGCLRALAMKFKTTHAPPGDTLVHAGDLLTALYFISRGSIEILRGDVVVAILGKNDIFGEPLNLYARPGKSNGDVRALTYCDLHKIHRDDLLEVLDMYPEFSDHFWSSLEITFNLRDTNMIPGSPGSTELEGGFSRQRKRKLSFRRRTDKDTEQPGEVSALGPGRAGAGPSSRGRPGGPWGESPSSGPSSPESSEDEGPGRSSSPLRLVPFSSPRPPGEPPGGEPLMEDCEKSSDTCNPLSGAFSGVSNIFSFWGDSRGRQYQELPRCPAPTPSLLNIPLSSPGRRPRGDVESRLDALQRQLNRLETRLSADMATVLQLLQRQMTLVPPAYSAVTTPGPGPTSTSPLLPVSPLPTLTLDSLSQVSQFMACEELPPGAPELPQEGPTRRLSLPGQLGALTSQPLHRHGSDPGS
Experimental: Test Example 6: hERG Potassium Channel Effect Test
The hERG inhibition test was performed on some of the example compounds of the present disclosure using the manual electrophysiological patch clamp method. The cell line was derived from HEK293 cells that overexpressed hERG potassium ion channels. The specific experimental protocol was developed by PharmaCore Labs with reference to literature published in peer-reviewed journals and was performed by PharmaCore Labs in accordance with its standard experimental operating procedures. The highest test concentration was 30 μM.

Chain of Menin/MLL-4-43 peptide interaction (O00255 whole entry, species assumed): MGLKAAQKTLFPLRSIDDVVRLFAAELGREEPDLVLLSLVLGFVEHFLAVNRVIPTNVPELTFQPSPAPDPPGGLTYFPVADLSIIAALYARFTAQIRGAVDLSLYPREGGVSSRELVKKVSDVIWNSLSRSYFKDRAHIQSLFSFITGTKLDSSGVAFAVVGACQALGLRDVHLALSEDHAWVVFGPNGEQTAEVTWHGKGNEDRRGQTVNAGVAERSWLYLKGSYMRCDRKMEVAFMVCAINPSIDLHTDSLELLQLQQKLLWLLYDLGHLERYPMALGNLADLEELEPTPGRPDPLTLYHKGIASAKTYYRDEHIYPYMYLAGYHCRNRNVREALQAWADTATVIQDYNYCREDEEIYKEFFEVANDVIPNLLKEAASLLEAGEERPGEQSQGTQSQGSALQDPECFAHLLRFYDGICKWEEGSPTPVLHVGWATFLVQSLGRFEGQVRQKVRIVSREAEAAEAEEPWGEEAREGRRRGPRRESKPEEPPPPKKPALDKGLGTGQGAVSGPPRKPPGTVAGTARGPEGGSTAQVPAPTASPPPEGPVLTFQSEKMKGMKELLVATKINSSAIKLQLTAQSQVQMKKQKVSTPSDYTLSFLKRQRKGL

Structure (SMILES)	IC50 [1] [nM]	half-life at 1 μM [2] [h]	half-life at 1 μM [3] [h]	inhibition at 30 μM [4] [%]	IC50 [4] [nM]
CC(C)N(C(=O)c1cc(F)ccc1Oc1nncnc1N1CC2(CCN(CC3CC4CCC3CC43CCC(=O)N3)CC2)C1)C(C)C (single isomer, unassigned) [Example 15-1a]	34.7	0.614	1.52		
CCN(C(=O)c1cc(F)ccc1Oc1cncnc1N1CC2(CCN(C[C@H]3CC[C@]4(CC3)CC(COC)(COC)C(=O)N4)CC2)C1)C(C)C [Example 17]	5	0.522	> 2		
COCC1(COC)C[C@]2(CC[C@@H](CN3CCC4(CC3)CN(c3ncnnc3Oc3ccc(F)cc3C(=O)N(C(C)C)C(C)C)C4)CC2)NC1=O [Example 20]	6	1.25	1.85	13.2	> 30000

Further lines, with some results ahead:

IC50 [1] [nM]	half-life at 1 μM [2] [h]	half-life at 1 μM [3] [h]	Structure (SMILES)	inhibition at 30 μM [4] [%]	IC50 [4] [nM]
16.3	1.47	> 2	COC[C@H]1C[C@]2(CC[C@@H](CN3CCC4(CC3)CN(c3ncnnc3Oc3ccc(F)cc3C(=O)N(C(C)C)C(C)C)C4)CC2)NC1=O [Example 38-1]	10.3	> 30000
2.8	1.04	1.08	COC[C@@H]1C[C@]2(CC[C@@H](CN3CCC4(CC3)CN(c3ncnnc3Oc3ccc(F)cc3C(=O)N(C(C)C)C(C)C)C4)CC2)NC1=O [Example 38-2]		
